Results from publication PMC11079024, “Identification of a family of species-selective complex I inhibitors as potential anthelmintics” (Nature Communications, 2024).
“And” between values parts separate entries of the source, which are not always exact repeats. Equal values may be shown once. Read-outs that look alike come from different tables or passages of the source.

Experiments:
P. pacificus complex I = P. pacificus complex I (Pristionchus pacificus, UniProt A0A454XZ18+A0A8R1Z3U8+A4UAP3); assay: In vitro complex I activity assay, P. pacificus mitochondria; assay type: biochemical
Method: (§1) Mitochondria were isolated from the following free-living nematode strains: C. elegans—N2, CB3474, ECA882, ECA917, ECA1075, ECA1080; C. briggsae—AF16; P. pacificus—PS312; and P. hermaphrodita—B178. With the exception of the P. hermaphrodita strain B178, adult worms of each strain were grown in bulk through liquid culture to obtain mitochondria in sufficient quantities. Due to poor growth in liquid media, mixed stage populations of P. hermaphrodita were washed off and collected from NGM plates seeded with OP50. The isolation of mitochondria from all free-living nematode strains followed the protocol previously outlined in Burns et al.[24]. In brief, a 1 L saturated culture of E. coli HB101 was concentrated 20-fold in 50 mL complete S-medium. ~500,000 L1 worms synchronized from an embryo preparation performed the day prior were added to the S-media/HB101 suspension and grown to adulthood over the course of 3.5 days at 20 °C with shaking at 165 rpm. Following growth, worms were collected in 10 ×15 mL conical tubes and washed 7 times in M9 buffer. Worm suspensions were then combined into a single 15 mL conical tube and diluted to a final volume of 15 mL with M9 buffer. 1 mL aliquots of worm suspension were then distributed to 15 × 1.5 mL screw-cap microcentrifuge tubes and were pelleted at 500 g for 1 min. Excess M9 was aspirated without disturbing the worm pellet. 600 μL ice-cold isolate buffer A (250 mM sucrose, 10 mM Tris (pH 7.5), 1 mM EDTA, 1 mM PMSF (freshly prepared)) and 300 μL cold glass beads were then added to each tube. Tubes were incubated on ice for 10 min, and the worms were then lysed by bead beating (6 x 30 s, with 1 min cooling intervals). Tubes containing worm lysate were centrifuged at 1,000 g for 10 min at 4 °C and the supernatant was transferred to 15 new microcentrifuge tubes on ice. The tubes were centrifuged a second time at 1,000 g for 10 min at 4 °C and the supernatant was once again transferred to 15 new microcentrifuge tubes on ice. These tubes were then centrifuged at 16,000 g for 10 min at 4 °C. The resulting mitochondrial pellet was washed twice by re-suspension in 300 μL of ice-cold isolate buffer B (250 mM sucrose, 10 mM Tris (pH 7.5), 1 mM EDTA). Following the final wash, isolation buffer was aspirated from each tube and the pellets were flash-frozen in ethanol/dry ice and stored at −80 °C until needed.
(§2) The enzymatic activities of individual ETC complexes (I-IV) were assessed spectrophotometrically in isolated mitochondria using a Varioskan LUX Multimode plate reader (ThermoFisher Scientific). Mitochondrial pellets previously isolated were thawed on ice and resuspended in ice-cold isolation buffer (250 mM sucrose, 10 mM Tris (pH 7.5), 1 mM EDTA). The BCA assay (Walker, 1994) was used to quantify the protein concentration of mitochondria suspensions; solutions were diluted to a concentration of 0.2 mg/mL for use in all assays. For the complex I assay, mitochondria pellets were freeze-thawed on ice three times to increase enzyme accessibility. […] 20 μL mitochondria suspension was then added/mixed with a pipette to initiate the reaction. Immediately following the addition of mitochondria, absorbance was measured (complex I and II: 600 nm; complex III and IV: 550 nm) in 30 s intervals over 15 min. Enzymatic activity was determined in each reaction by plotting absorbance versus time and calculating the slope of the curve during the initial linear phase of the reaction. […] Percent activity of each complex was calculated by dividing the enzyme-specific activity of each well by the enzyme-specific activity of the corresponding solvent controls.
(§3) Chemical solutions were prepared in complex I assay buffer composed of 25 mM KPi buffer (pH 7.5), 3 mg/mL bovine serum albumin (BSA), 80 μM NADH, 60 μM decylubiquinone, 160 μM DCIP, 2 μM antimycin A and 2 mM KCN. […]

[1] = test system: P. hermaphrodita complex I; assay: In vitro complex I activity assay, P. hermaphrodita mitochondria; assay type: biochemical, Phasmarhabditis hermaphrodita; settings: for in vitro complex I activity relative to solvent control: P. hermaphrodita mitochondria
Method: as §1, §2, §3

## Cc1nc2ccccc2n1Cc1ccc(Cl)cc1 [STK697993]
P. pacificus complex I; P. pacificus mitochondria, 0.0001 µM, Mean, read-out: in vitro complex I activity relative to solvent control
  remaining activity at 0.0001 µM: 94.6%
P. pacificus complex I; P. pacificus mitochondria, 0.0001 µM, single replicate
  in vitro complex I activity relative to solvent control: 101.484% and 94.523%
P. pacificus complex I; P. pacificus mitochondria, 0.0001 µM, single replicate, read-out: in vitro complex I activity relative to solvent control
  remaining activity at 0.0001 µM: 87.6%
P. pacificus complex I; P. pacificus mitochondria, 0.0005 µM, Mean, read-out: in vitro complex I activity relative to solvent control
  remaining activity at 0.0005 µM: 77.4%
P. pacificus complex I; P. pacificus mitochondria, 0.0005 µM, single replicate
  in vitro complex I activity relative to solvent control: 88.361% and 49.299%
P. pacificus complex I; P. pacificus mitochondria, 0.001 µM, Mean, read-out: in vitro complex I activity relative to solvent control
  remaining activity at 0.001 µM: 107%
P. pacificus complex I; P. pacificus mitochondria, 0.001 µM, single replicate
  in vitro complex I activity relative to solvent control: 104.362% and 121.410% and 94.602%
P. pacificus complex I; P. pacificus mitochondria, 0.0025 µM, Mean, read-out: in vitro complex I activity relative to solvent control
  remaining activity at 0.0025 µM: 102%
P. pacificus complex I; P. pacificus mitochondria, 0.0025 µM, single replicate
  in vitro complex I activity relative to solvent control: 89.591% and 126.458% and 89.566%
P. pacificus complex I; P. pacificus mitochondria, 0.005 µM, Mean, read-out: in vitro complex I activity relative to solvent control
  remaining activity at 0.005 µM: 96.6%
P. pacificus complex I; P. pacificus mitochondria, 0.005 µM, single replicate
  in vitro complex I activity relative to solvent control: 89.435% and 110.953% and 89.424%
P. pacificus complex I; P. pacificus mitochondria, 0.013 µM, Mean, read-out: in vitro complex I activity relative to solvent control
  remaining activity at 0.013 µM: 82.8%
P. pacificus complex I; P. pacificus mitochondria, 0.013 µM, single replicate
  in vitro complex I activity relative to solvent control: 85.370% and 80.753%
P. pacificus complex I; P. pacificus mitochondria, 0.013 µM, single replicate, read-out: in vitro complex I activity relative to solvent control
  remaining activity at 0.013 µM: 82.3%
P. pacificus complex I; P. pacificus mitochondria, 0.025 µM, Mean, read-out: in vitro complex I activity relative to solvent control
  remaining activity at 0.025 µM: 81.8%
P. pacificus complex I; P. pacificus mitochondria, 0.025 µM, single replicate
  in vitro complex I activity relative to solvent control: 78.182% and 98.911% and 68.184%
P. pacificus complex I; P. pacificus mitochondria, 0.063 µM, Mean, read-out: in vitro complex I activity relative to solvent control
  remaining activity at 0.063 µM: 55.6%
P. pacificus complex I; P. pacificus mitochondria, 0.063 µM, single replicate
  in vitro complex I activity relative to solvent control: 59.066% and 53.138%
P. pacificus complex I; P. pacificus mitochondria, 0.063 µM, single replicate, read-out: in vitro complex I activity relative to solvent control
  remaining activity at 0.063 µM: 54.5%
P. pacificus complex I; P. pacificus mitochondria, 0.125 µM, Mean, read-out: in vitro complex I activity relative to solvent control
  remaining activity at 0.125 µM: 36.1%
P. pacificus complex I; P. pacificus mitochondria, 0.125 µM, single replicate
  in vitro complex I activity relative to solvent control: 35.771% and 33.806%
P. pacificus complex I; P. pacificus mitochondria, 0.125 µM, single replicate, read-out: in vitro complex I activity relative to solvent control
  remaining activity at 0.125 µM: 38.7%
P. pacificus complex I; P. pacificus mitochondria, 0.313 µM, Mean, read-out: in vitro complex I activity relative to solvent control
  remaining activity at 0.313 µM: 20.5%
P. pacificus complex I; P. pacificus mitochondria, 0.313 µM, single replicate
  in vitro complex I activity relative to solvent control: 25.713% and 19.065%
P. pacificus complex I; P. pacificus mitochondria, 0.313 µM, single replicate, read-out: in vitro complex I activity relative to solvent control
  remaining activity at 0.313 µM: 16.8%
P. pacificus complex I; P. pacificus mitochondria, 0.625 µM, Mean, read-out: in vitro complex I activity relative to solvent control
  remaining activity at 0.625 µM: 17.3%
P. pacificus complex I; P. pacificus mitochondria, 0.625 µM, single replicate
  in vitro complex I activity relative to solvent control: 22.397% and 7.371% and 22.004%
P. pacificus complex I; P. pacificus mitochondria, 1.5 µM, Mean, read-out: in vitro complex I activity relative to solvent control
  remaining activity at 1.5 µM: 18.5%
P. pacificus complex I; P. pacificus mitochondria, 1.5 µM, single replicate
  in vitro complex I activity relative to solvent control: 23.927% and 2.400% and 29.263%
P. pacificus complex I; P. pacificus mitochondria, 3 µM, Mean, read-out: in vitro complex I activity relative to solvent control
  remaining activity at 3 µM: 15.2%
P. pacificus complex I; P. pacificus mitochondria, 3 µM, single replicate
  in vitro complex I activity relative to solvent control: 21.335% and 0.000% and 24.340%
P. pacificus complex I; P. pacificus mitochondria, 15 µM, Mean, read-out: in vitro complex I activity relative to solvent control
  remaining activity at 15 µM: 7.59%
P. pacificus complex I; P. pacificus mitochondria, 15 µM, single replicate
  in vitro complex I activity relative to solvent control: 11.369% and 0.506% and 10.901%
P. pacificus complex I; P. pacificus mitochondria, 37.5 µM, Mean, read-out: in vitro complex I activity relative to solvent control
  remaining activity at 37.5 µM: 7.5%
P. pacificus complex I; P. pacificus mitochondria, 37.5 µM, single replicate
  in vitro complex I activity relative to solvent control: 6.933% and 4.878% and 10.703%
P. pacificus complex I; P. pacificus mitochondria, 75 µM, Mean, read-out: in vitro complex I activity relative to solvent control
  remaining activity at 75 µM: 4.35%
P. pacificus complex I; P. pacificus mitochondria, 75 µM, single replicate
  in vitro complex I activity relative to solvent control: 3.580% and 5.152%
P. pacificus complex I; P. pacificus mitochondria, 75 µM, single replicate, read-out: in vitro complex I activity relative to solvent control
  remaining activity at 75 µM: 4.33%
P. pacificus complex I; purified mitochondria
  IC50: 70 nM
[1]; 0.0001 µM, Mean
  in vitro complex I activity relative to solvent control: 89.612%
[1]; 0.0001 µM, single replicate
  in vitro complex I activity relative to solvent control: 93.319% and 105.139% and 70.379%
[1]; 0.0005 µM, Mean
  in vitro complex I activity relative to solvent control: 95.634%
[1]; 0.0005 µM, single replicate
  in vitro complex I activity relative to solvent control: 119.766% and 92.855% and 74.280%
[1]; 0.001 µM, Mean
  in vitro complex I activity relative to solvent control: 90.469%
[1]; 0.001 µM, single replicate
  in vitro complex I activity relative to solvent control: 96.266% and 129.304% and 45.836%
[1]; 0.0025 µM, Mean
  in vitro complex I activity relative to solvent control: 83.278%
[1]; 0.0025 µM, single replicate
  in vitro complex I activity relative to solvent control: 64.388% and 114.111% and 71.337%
[1]; 0.005 µM, Mean
  in vitro complex I activity relative to solvent control: 110.209%
[1]; 0.005 µM, single replicate
  in vitro complex I activity relative to solvent control: 99.329% and 145.962% and 85.335%
[1]; 0.013 µM, Mean
  in vitro complex I activity relative to solvent control: 102.008%
[1]; 0.013 µM, single replicate
  in vitro complex I activity relative to solvent control: 103.702% and 118.527% and 83.796%
[1]; 0.025 µM, Mean
  in vitro complex I activity relative to solvent control: 81.894%
[1]; 0.025 µM, single replicate
  in vitro complex I activity relative to solvent control: 82.152% and 107.849% and 55.682%
[1]; 0.063 µM, Mean
  in vitro complex I activity relative to solvent control: 53.328%
[1]; 0.063 µM, single replicate
  in vitro complex I activity relative to solvent control: 61.601% and 65.149% and 33.235%
[1]; 0.125 µM, Mean
  in vitro complex I activity relative to solvent control: 31.057%
[1]; 0.125 µM, single replicate
  in vitro complex I activity relative to solvent control: 37.073% and 51.097% and 5.000%
[1]; 0.313 µM, Mean
  in vitro complex I activity relative to solvent control: 8.632%
[1]; 0.313 µM, single replicate
  in vitro complex I activity relative to solvent control: 10.235% and 15.661% and 0.000%
[1]; 0.625 µM, Mean
  in vitro complex I activity relative to solvent control: 5.779%
[1]; 0.625 µM, single replicate
  in vitro complex I activity relative to solvent control: 0.000% and 9.493% and 7.843%
[1]; 1.5 µM, Mean
  in vitro complex I activity relative to solvent control: 4.860%
[1]; 1.5 µM, single replicate
  in vitro complex I activity relative to solvent control: 0.000% and 2.483% and 12.098%
[1]; 3 µM, Mean
  in vitro complex I activity relative to solvent control: 2.448%
[1]; 3 µM, single replicate
  in vitro complex I activity relative to solvent control: 0.000% and 7.344%
[1]; 15 µM, Mean
  in vitro complex I activity relative to solvent control: 12.306%
[1]; 15 µM, single replicate
  in vitro complex I activity relative to solvent control: 12.065% and 18.802% and 6.051%
[1]; 37.5 µM, Mean
  in vitro complex I activity relative to solvent control: 7.732%
[1]; 37.5 µM, single replicate
  in vitro complex I activity relative to solvent control: 0.065% and 16.547% and 6.585%
[1]; 75 µM, Mean
  in vitro complex I activity relative to solvent control: 3.784%
[1]; 75 µM, single replicate
  in vitro complex I activity relative to solvent control: 0.000% and 11.350%
[1]; purified mitochondria
  IC50: 70.3 nM
